Values of other authors, collected in publication PMC8453901, “GLPG1205, a GPR84 Modulator: Safety, Pharmacokinetics, and Pharmacodynamics in Healthy Subjects” (Clinical Pharmacology in Drug Development, 2021).

System: histological lesions in the lung
Set-up: method as in PMID 29454750
Conditions: bleomycin-induced mouse model of pulmonary fibrosis, compared with vehicle; cited from earlier work

In the case of `CCCCCc1cccc(CC(=O)O)c1` [PBI‐4050], the “reduction of histological lesions in the lung” value is listed as 47%.
